This is an account of results in publication PMC8910920 (International Journal of Molecular Sciences, 2022).

The structures appear in SMILES notation.

For experiment [1], the system named is CCI rats, cold hypersensitivity. Description: CCI model of neuropathic pain, cold sensitivity (acetone test). It counts as in vivo, rat. The settings on record: for cold hypersensitivity in CCI rats: 30 min after injection. How it is done: (§1) The CCI model of neuropathic pain allowed the evaluation of the effect RGM8-51 on cold, heat and mechanical sensitivity, as assayed by the acetone test, the Hargreaves test, and the automatized von Frey test, respectively. RGM8-51 was applied either locally (i.pl.; 10 µg) in the affected paw or systemically (intraperitoneally, i.p., 10 and 30 mg/kg) and the effect evaluated before (Baseline) and after CCI surgery. The nocifensive response after administration of RGM8-51 was compared with that of vehicle, while non-operated animals and the uninjured (contralateral) hind paw in CCI animals were used as controls.
(§2) Adult male Sprague-Dawley rats (weighing 200–220 g/6–8 weeks old) were used in these experiments. All experimental procedures were conducted according to the animal welfare guidelines of the European Community (European Directive 2010/63/UE) to minimize animal suffering and were approved by Universidad Complutense de Madrid and Comunidad de Madrid ethical committees on animal experimentation (PROEX 207.8/21). […]
(§3) For behavioral testing, rats were placed in individual methacrylate boxes with a wire mesh floor, and after a period of 15 min acclimatization, the cold, heat and mechanical sensitivity of the ipsilateral and contralateral paws was determined. Cold sensitivity was assessed with the acetone test. In total, 100 µL acetone were locally applied to the plantar surface of the hind paw and the duration of the subsequent nocifensive response (licking, brushing, and flinching of the paw) was determined during 60 s. Acetone application and assessment were repeated 2 times with a 5 min interval and the sum of the two values was recorded. Heat sensitivity was determined with the Hargreaves test, which uses infrared light as a heat source, with a Hargreaves apparatus (Serie 8, Model 336, IITC Life Science, Woodland Hills, CA USA). The light beam was directed to the plantar surface of the hind paw and the time from the beginning of irradiation to the appearance of first paw withdrawal movement was measured (paw withdrawal latency). […]

Experiment [2] deals with CCI rats, mechanical hypersensitivity. Description: CCI model of neuropathic pain, mechanical sensitivity (automatized von Frey test). The format is in vivo, rat. The protocol: as §1, §2, §3
Experiment [3] concerns OXA-induced cold hypersensitivity in male mice. In words: Oxaliplatin-induced peripheral neuropathy, acetone drop test. It counts as in vivo, mouse. How it is done:
For the OXA-induced peripheral neuropathy assay, OXA was […] injected on days 1, 3 and 5 to male mice, at a 6 mg/kg dose, to induce hypersensitivity to cold, as monitored by the acetone drop test (Figure 6).
For the experiments, 6–8 weeks C57 male mice (≈30g) (Harlam, Holland) were used. All experiments were approved by the Institutional Animal and Ethical Committee of the Universidad Miguel Hernandez and Comunidad Valencian ethical committees (2021/VSC/PEA/0089) where experiments were conducted and they were in accordance with the guidelines of the Economic European Community and the Committee for Research and Ethical Issues of the International Association for the Study of Pain. All parts of the study concerning animal care were performed under the control of veterinarians. Experiments were performed blinded for NTG and compound treatment.
Oxaliplatin (OXA, Tocris, Bristol, UK) was used to induce peripheral neuropathy and was dissolved in water with gentle warming as formerly described. OXA was intraperitoneally injected on days 1, 3 and 5 at a 6 mg/kg dose. […] Cold chemical sensitivity was assessed using the acetone drop test. […] Positive nociceptive responses (licking time in seconds) were recorded with a digital stopwatch during 20 s (cut-off). Acetone was applied twice in an interval of 5 min between each application and the mean was calculated.

As for `C[C@@H]1C(=O)N(C[C@H](Cc2ccccc2)N(Cc2ccccc2)Cc2ccccc2)[C@]1(Cc1ccccc1)C(=O)OC(C)(C)C` [RGM8-51, 4(S)-Benzyl-3S-methyl-4-(tert-butoxy)carbonyl-1-[(2′S-dibenzylamino-3′-phenyl)prop-1′-yl]-2-oxoazetidine], the “cold hypersensitivity in CCI rats” value in experiment [1] (i.p. 10 and 30 mg/kg) is on record as “inhibited it dose-dependently”; in experiment [1] (i.pl. 10 µg), “reduced cold hypersensitivity”. Besides, the “response to cold in non-operated animals (baseline) or contralateral uninjured paw” value in experiment [1] (i.pl. or i.p.) is on record as “no effect was observed”. Besides, the “mechanical sensitivity in the absence of neuropathy” value in experiment [2] (baseline, non-operated) was “could not be observed”. Further, the “mechanical hypersensitivity (paw withdrawal threshold) in CCI rats” value is listed as “dose-dependently reverted paw withdrawal thresholds” in experiment [2] (i.p. 10 and 30 mg/kg); “effect also being produced” in experiment [2] (local (i.pl.) 10 µg). The “OXA-induced cold hypersensitivity (cold-induced paw licking)” value in experiment [3] (0.1 µg i.pl., sustained activity from 15 to 30 min) is recorded as “still highly active”; in experiment [3] (1 μg i.pl., significant at 15 min, peak effect from 30 to 60 min), “attenuates the cold-induced paw licking in a significant manner”.
